Values after ≈ are worked out from the molar mass of the structure shown.
Assays:
Assay type in all cases: cell-based
[1] = system: Pseudomonas aeruginosa #28; assay: Minimal inhibitory concentration against Pseudomonas aeruginosa #28
Serr. marces. = assay: Minimal inhibitory concentration against Serr. marces.
Staph. aureus S18713 = assay: Minimal inhibitory concentration against Staph. aureus S18713; conditions: Staphylococcus aureus
Entero. cloacae = assay: Minimal inhibitory concentration against Entero. cloacae; conditions: Enterobacter cloacae
Klebs. pneu. = assay: Minimal inhibitory concentration against Klebs. pneu.

**Q.** CC1(C)S[C@@H]2[C@H](NC(=O)[C@H](NC(=O)c3ccc(-c4ccc(NC(=O)CSCC(F)(F)F)cc4)[nH]c3=O)c3ccc(O)cc3)C(=O)N2[C@H]1C(=O)O [Example 8] was tested. Which MIC [1] did it give?
**A.** Its MIC is 0.8 µg/mL (≈ 1.09 µM).

**Q.** And the MIC (Serr. marces.)?
**A.** The MIC was 0.4 µg/mL (≈ 0.545 µM).

**Q.** What about the MIC (Staph. aureus S18713) of the same compound?
**A.** The MIC was over 50 µg/mL.

**Q.** And the MIC (Entero. cloacae)?
**A.** Its MIC is 6.3 µg/mL (≈ 8.59 µM).

**Q.** And the MIC (Klebs. pneu.)?
**A.** The MIC was 3.1 µg/mL (≈ 4.22 µM).

**Q.** How did the MIC [1] turn out when CCNC(=O)Nc1ccc(-c2ccc(C(=O)N[C@@H](C(=O)N[C@@H]3C(=O)N4[C@@H]3SC(C)(C)[C@@H]4C(=O)O)c3ccc(O)cc3)c(=O)[nH]2)cc1 [Example 14, N-[6-[4-(N-Ethylcarbamoylamino)phenyl]-1,2-dihydro-2-oxonicotinoyl]amoxicillin] was run?
**A.** The MIC was 0.8 µg/mL (≈ 1.23 µM).

**Q.** And the MIC (Serr. marces.)?
**A.** Its MIC is 0.8 µg/mL (≈ 1.23 µM).

**Q.** And the MIC (Staph. aureus S18713)?
**A.** The MIC was 50 µg/mL (≈ 77.1 µM).

**Q.** And the MIC (Entero. cloacae)?
**A.** The MIC was 3.1 µg/mL (≈ 4.78 µM).

**Q.** What about the MIC (Klebs. pneu.) of the same compound?
**A.** Its MIC is 6.3 µg/mL (≈ 9.71 µM).

**Q.** Which results are given for CC1(C)S[C@@H]2[C@H](NC(=O)[C@H](NC(=O)c3ccc(-c4ccc(NC(=O)CC#N)cc4)[nH]c3=O)c3ccc(O)cc3)C(=O)N2[C@H]1C(=O)O [Example 5]?
**A.** MIC [1]: 1.6 µg/mL (≈ 2.48 µM); MIC (Serr. marces.): 200 µg/mL (≈ 310 µM); MIC (Staph. aureus S18713): 100 µg/mL (≈ 155 µM); MIC (Entero. cloacae): 1.6 µg/mL (≈ 2.48 µM); MIC (Klebs. pneu.): 3.1 µg/mL (≈ 4.81 µM)

**Q.** How did the MIC [1] turn out when CC(=O)Nc1ccc(-c2ccc(C(=O)N[C@@H](C(=O)N[C@@H]3C(=O)N4[C@@H]3SC(C)(C)[C@@H]4C(=O)O)c3ccccc3)c(=O)[nH]2)cc1 [Example 1, N-[6-[4-(Acetylamino)phenyl]-1,2-dihydro-2-oxonicotinoyl]-ampicillin] was run?
**A.** The MIC was 3.1 µg/mL (≈ 5.14 µM).

**Q.** What about the MIC (Serr. marces.) of the same compound?
**A.** The MIC was 25 µg/mL (≈ 41.4 µM).

**Q.** What about the MIC (Staph. aureus S18713) of the same compound?
**A.** The MIC was 100 µg/mL (≈ 166 µM).

**Q.** And the MIC (Entero. cloacae)?
**A.** Its MIC is 12.5 µg/mL (≈ 20.7 µM).

**Q.** And the MIC (Klebs. pneu.)?
**A.** Its MIC is 6.3 µg/mL (≈ 10.4 µM).

**Q.** Which results are given for CC1(C)S[C@@H]2[C@H](NC(=O)[C@H](NC(=O)c3ccc(-c4ccc(NC(=O)CSCC#N)cc4)[nH]c3=O)c3ccc(O)cc3)C(=O)N2[C@H]1C(=O)O [Example 9]?
**A.** MIC [1]: 1.6 µg/mL (≈ 2.32 µM); MIC (Serr. marces.): 1.6 µg/mL (≈ 2.32 µM); MIC (Staph. aureus S18713): > 50 µg/mL; MIC (Entero. cloacae): 12.5 µg/mL (≈ 18.1 µM); MIC (Klebs. pneu.): 6.3 µg/mL (≈ 9.12 µM)

**Q.** Which results are given for CC1(C)S[C@@H]2[C@H](NC(=O)[C@H](NC(=O)c3ccc(-c4ccc(NC(=O)OCc5ccccc5)cc4)[nH]c3=O)c3ccccc3)C(=O)N2[C@H]1C(=O)O [Example 11, N-[6-[4-(Benzyloxycarbonylamino)phenyl]-1,2-dihydro-2-oxonicotinoyl]ampicillin]?
**A.** MIC [1]: 1.6 µg/mL (≈ 2.3 µM); MIC (Serr. marces.): 12.5 µg/mL (≈ 18 µM); MIC (Staph. aureus S18713): 50 µg/mL (≈ 71.9 µM); MIC (Entero. cloacae): 6.3 µg/mL (≈ 9.05 µM); MIC (Klebs. pneu.): 0.8 µg/mL (≈ 1.15 µM)

**Q.** Which MIC [1] does the source give for CC1(C)S[C@@H]2[C@H](NC(=O)[C@H](NC(=O)c3ccc(-c4ccc(NC(=O)Cc5ccccc5)cc4)[nH]c3=O)c3ccc(O)cc3)C(=O)N2[C@H]1C(=O)O [Example 13, N-[6-[4-(Phenylacetylamino)phenyl]-1,2-dihydro-2-oxonicotinoyl]amoxicillin] here?
**A.** Its MIC is 1.6 µg/mL (≈ 2.3 µM).

**Q.** And the MIC (Serr. marces.)?
**A.** The MIC was 50 µg/mL (≈ 71.9 µM).

**Q.** And the MIC (Staph. aureus S18713)?
**A.** Its MIC is 50 µg/mL (≈ 71.9 µM).

**Q.** What about the MIC (Entero. cloacae) of the same compound?
**A.** The MIC was 1.6 µg/mL (≈ 2.3 µM).

**Q.** What about the MIC (Klebs. pneu.) of the same compound?
**A.** Its MIC is 3.1 µg/mL (≈ 4.46 µM).

**Q.** Which MIC [1] does the source give for CC1(C)S[C@@H]2[C@H](NC(=O)[C@H](NC(=O)c3ccc(-c4ccc(NC(=O)C(F)(F)F)cc4)[nH]c3=O)c3ccccc3)C(=O)N2[C@H]1C(=O)O [Example 3, N-[6-[4(Trifluoroacetylamino)phenyl]-1,2-dihydro-2-oxonicotinoyl]ampicillin] here?
**A.** Its MIC is 6.3 µg/mL (≈ 9.58 µM).

**Q.** What about the MIC (Serr. marces.) of the same compound?
**A.** The MIC was 25 µg/mL (≈ 38 µM).

**Q.** What about the MIC (Staph. aureus S18713) of the same compound?
**A.** Its MIC is 200 µg/mL (≈ 304 µM).

**Q.** What about the MIC (Entero. cloacae) of the same compound?
**A.** The MIC was 3.1 µg/mL (≈ 4.71 µM).

**Q.** And the MIC (Klebs. pneu.)?
**A.** The MIC was 6.3 µg/mL (≈ 9.58 µM).

**Q.** What does the source list for CCOC(=O)C(=O)Nc1ccc(-c2ccc(C(=O)N[C@@H](C(=O)N[C@@H]3C(=O)N4[C@@H]3SC(C)(C)[C@@H]4C(=O)O)c3ccc(O)cc3)c(=O)[nH]2)cc1 [Example 10, N-[6-[4-[(2-Ethoxy-1,2-dioxoethyl)amino]phenyl]-1,2-dihydro-2-oxonicotinoyl]amoxicillin]?
**A.** MIC [1]: 6.3 µg/mL (≈ 9.3 µM); MIC (Serr. marces.): 200 µg/mL (≈ 295 µM); MIC (Staph. aureus S18713): 50 µg/mL (≈ 73.8 µM); MIC (Entero. cloacae): 1.6 µg/mL (≈ 2.36 µM); MIC (Klebs. pneu.): 6.3 µg/mL (≈ 9.3 µM)

**Q.** For CC1(C)S[C@@H]2[C@H](NC(=O)[C@H](NC(=O)c3ccc(-c4ccc(NC(=O)C(F)(F)F)cc4)[nH]c3=O)c3ccc(O)cc3)C(=O)N2[C@H]1C(=O)O [Example 4, N-[6-[4-(Trifluoroacetylamino)phenyl]-1,2-dihydro-2-oxonicotinoyl]amoxicillin], which MIC [1] is on record?
**A.** Its MIC is 1.6 µg/mL (≈ 2.38 µM).

**Q.** What about the MIC (Serr. marces.) of the same compound?
**A.** The MIC was 100 µg/mL (≈ 148 µM).

**Q.** What about the MIC (Staph. aureus S18713) of the same compound?
**A.** Its MIC is 100 µg/mL (≈ 148 µM).

**Q.** What about the MIC (Entero. cloacae) of the same compound?
**A.** Its MIC is 3.1 µg/mL (≈ 4.6 µM).

**Q.** And the MIC (Klebs. pneu.)?
**A.** Its MIC is 3.1 µg/mL (≈ 4.6 µM).

**Q.** Which results are given for CC1(C)S[C@@H]2[C@H](NC(=O)[C@H](NC(=O)c3ccc(-c4ccc(NC(=O)Cc5nn[nH]n5)cc4)[nH]c3=O)c3ccc(O)cc3)C(=O)N2[C@H]1C(=O)O [Example 6]?
**A.** MIC [1]: 3.1 µg/mL (≈ 4.51 µM); MIC (Serr. marces.): 1.6 µg/mL (≈ 2.33 µM); MIC (Staph. aureus S18713): > 50 µg/mL; MIC (Entero. cloacae): 1.6 µg/mL (≈ 2.33 µM); MIC (Klebs. pneu.): 12.5 µg/mL (≈ 18.2 µM)

**Q.** With CC(=O)Nc1cccc(-c2ccc(C(=O)N[C@@H](C(=O)N[C@@H]3C(=O)N4[C@@H]3SC(C)(C)[C@@H]4C(=O)O)c3ccccc3)c(=O)[nH]2)c1 [Example 15, N-[6-[3-(Acetylamino)phenyl]-1,2-dihydro-2-oxonicotinoyl]ampicillin] as the compound, how does the MIC [1] read?
**A.** Its MIC is 6.3 µg/mL (≈ 10.4 µM).

**Q.** What about the MIC (Serr. marces.) of the same compound?
**A.** The MIC was 12.5 µg/mL (≈ 20.7 µM).

**Q.** What about the MIC (Staph. aureus S18713) of the same compound?
**A.** The MIC was over 200 µg/mL.

**Q.** And the MIC (Entero. cloacae)?
**A.** Its MIC is 6.3 µg/mL (≈ 10.4 µM).

**Q.** What about the MIC (Klebs. pneu.) of the same compound?
**A.** Its MIC is 3.1 µg/mL (≈ 5.14 µM).

**Q.** For CC(=O)C(=O)Nc1ccc(-c2ccc(C(=O)N[C@@H](C(=O)N[C@@H]3C(=O)N4[C@@H]3SC(C)(C)[C@@H]4C(=O)O)c3ccc(O)cc3)c(=O)[nH]2)cc1 [Example 7, N-[6-[4-(1,2-Dioxopropylamino)phenyl]-1,2-dihydro-2-oxonicotinoyl]amoxicillin], which MIC [1] is on record?
**A.** The MIC was 1.6 µg/mL (≈ 2.47 µM).

**Q.** And the MIC (Serr. marces.)?
**A.** Its MIC is 3.1 µg/mL (≈ 4.79 µM).

**Q.** What about the MIC (Staph. aureus S18713) of the same compound?
**A.** The MIC was 25 µg/mL (≈ 38.6 µM).

**Q.** What about the MIC (Entero. cloacae) of the same compound?
**A.** The MIC was 3.1 µg/mL (≈ 4.79 µM).

**Q.** What about the MIC (Klebs. pneu.) of the same compound?
**A.** Its MIC is 12.5 µg/mL (≈ 19.3 µM).

**Q.** Which MIC [1] does the source give for COC(=O)Nc1ccc(-c2ccc(C(=O)N[C@@H](C(=O)N[C@@H]3C(=O)N4[C@@H]3SC(C)(C)[C@@H]4C(=O)O)c3ccc(O)cc3)c(=O)[nH]2)cc1 [Example 12, N-[6-[4-(Methoxycarbonylamino)phenyl]-1,2-dihydro-2-oxonicotinoyl]amoxicillin] here?
**A.** The MIC was 1.6 µg/mL (≈ 2.52 µM).

**Q.** What about the MIC (Serr. marces.) of the same compound?
**A.** Its MIC is 25 µg/mL (≈ 39.3 µM).

**Q.** What about the MIC (Staph. aureus S18713) of the same compound?
**A.** The MIC was 100 µg/mL (≈ 157 µM).

**Q.** And the MIC (Entero. cloacae)?
**A.** Its MIC is 1.6 µg/mL (≈ 2.52 µM).

**Q.** And the MIC (Klebs. pneu.)?
**A.** Its MIC is 3.1 µg/mL (≈ 4.88 µM).

**Q.** How did the MIC [1] turn out when CC(=O)Nc1ccc(-c2ccc(C(=O)N[C@@H](C(=O)N[C@@H]3C(=O)N4[C@@H]3SC(C)(C)[C@@H]4C(=O)O)c3ccc(O)cc3)c(=O)[nH]2)cc1 [Example 2, N-[6-[4-(acetylamino)phenyl]-1,2-dihydro-2-oxonicotinoyl]amoxicillin] was run?
**A.** Its MIC is 3.1 µg/mL (≈ 5 µM).

**Q.** And the MIC (Serr. marces.)?
**A.** Its MIC is 25 µg/mL (≈ 40.3 µM).

**Q.** What about the MIC (Staph. aureus S18713) of the same compound?
**A.** The MIC was 200 µg/mL (≈ 323 µM).

**Q.** And the MIC (Entero. cloacae)?
**A.** The MIC was 6.3 µg/mL (≈ 10.2 µM).

**Q.** And the MIC (Klebs. pneu.)?
**A.** The MIC was 12.5 µg/mL (≈ 20.2 µM).

Reference: US4315858A, “Antibacterial amide compounds” (Warner-Lambert Company, priority 1980, dated 1982)
